Measured values reported in patent US8435969B2, “Method and compositions for treating hematological malignancies” (Gilead Sciences, Inc., priority 2006, dated 2013).
Values belong to the compound of their own block, whether it stands above or below them.

Columns and labels:
[1] = dog, in vivo, iv, 0.2 mg/kg
Description: Distribution of Prodrugs between PBMCs and Plasma in Dogs • Dogs were administered various prodrugs of cpr-PMEDAP as 0.2 mg/kg 30 minute IV infusions. […] Alanine was the L isomer. • Blood was collected into potassium EDTA and separated by centrifugation. Primary blood mononuclear cells (PBMCs) were collected using CPT tubes (sodium citrate). • For analysis, plasma samples were precipitated by addition of 100 μL acetonitirile containing internal standards (D4AP and TDF) to 100 μL of plasma for prodrug analysis. After protein precipitation by centrifugation, 100 μA was transferred into another tube to be dried and then reconstituted in 100 μL water with 0.2% formic acid. An aliquot of 20 μL was injected onto the column for LC/MS/MS analysis. Analysis was done using a 150×2.0 mm, 4 μm Synergi Fusion-RP 80A column (Phenomenex) and a multistage linear gradient from 0.5 to 99% acetonitrile in the presence of 0.2% formic acid at 0.25 mL/min. Analytes were detected using a Sciex API-4000 mass spectrometer using electrospray ionization in positive MRM mode. […] Separate aliquots of cells from each time point resuspended in 100% serum were used to establish the cell quantities in each sample. Cell samples were normalized to 15×10^6 cells per sample. Varying degrees of hemolyses have been observed. […] 20 μL was injected for LC/MS/MS analysis using a 50×2.0 mm, 4 μm Synergi Hydro-RP 80A column (Phenomenex) and a multistage linear gradient from 0 to 95% acetonitrile in the presence of 0.2% formic acid at 1.0 mL/min. Analytes were detected using a Sciex API-4000 mass spectrometer using electrospray ionization in positive MRM mode. • After drying, samples for dephosphorylation were treated with 1 U of calf intestinal phosphatase (alkaline phosphatase, Sigma) for 2 h in manufacturer provided buffer. Samples were then adjusted to 60% acetonitrile dried and resuspended in 60% acetonitrile containing internal standards (TDF and D4AP) and analyzed for cpr-PMEDAP as described for direct PBMC analysis.

Hygroscopicity = assay type: physicochemical; conditions: solid form
[2] = Solubility of the succinate salt; assay type: physicochemical; conditions: pH 4.2-4.7
[3] = Storage stability in aqueous solution; assay type: physicochemical; conditions: 60 hours
From the text: Parenteral (sterile aqueous) solutions of the organic acid salts of compound 1 optionally comprise a stabilizing amount of carbohydrate, typically a saccharide (mono, di or polysaccharides), glycoside or sugar alcohol (alditols). Polysaccharides should be biodegradable upon parenteral injection or infusion and include dextrins and starches, typically 3-10 units. Representative carbohydrates include hexoses, aldoses, aldohexoses, aldotrioses (e.g. glyceraldehyde), aldotetroses (e.g. erythrose), aldopentoses (e.g. arabinose), ketoses, ketohexose (e.g. fructose), ketopentoses (e.g. ribulose), maltose, sucrose, lactose, ribose, xylose, lyxose, allose, altrose, glucose, mannose, gulose, idose, galactose and talose. Of particular interest are carbohydrates conventionally used in parenteral formulations, e.g., mannitol or dextrose. The optical character of the carbohydrate is not critical, but it is desirable for the configuration to be such that the carbohydrate is biodegradable upon parenteral administration. […] On the other hand, storage in buffered solutions at pH 2, 7 and 9 under the same conditions lead to substantial degradation of compound 1: About 100%,18% and 76% by weight, respectively.

Compound: CC(C)OC(=O)[C@H](C)NP(=O)(COCCn1cnc2c(NC3CC3)nc(N)nc21)N[C@@H](C)C(=O)OC(C)C [BisAlaiPr]
PBMC to Plasma ratio [1]: 1.2

Compound: CC(C)OC(=O)[C@H](C)NP(=O)(COCCn1cnc2c(NC3CC3)nc(N)nc21)Oc1ccccc1 (stereo partly drawn) [MonoAlaiPr]
PBMC to Plasma ratio [1]: 17

Compound: CCOC(=O)[C@H](C)NP(=O)(COCCn1cnc2c(NC3CC3)nc(N)nc21)N[C@@H](C)C(=O)OCC [compound 1 succinate]
solubility [2]: > 39 mg/mL
Degradation on storage ([3]; 5% dextrose (by weight of solution; pH about 4.2, unbuffered), 40° C.): without significant degradation
Degradation on storage ([3]; buffered solution pH 2, 40° C.): About 100 % by weight
Degradation on storage ([3]; buffered solution pH 9, 40° C.): ~76 % by weight

Now from value to compound:

PBMC to Plasma ratio [1]: 19
Compound: C[C@H](NP(=O)(COCCn1cnc2c(NC3CC3)nc(N)nc21)Oc1ccccc1)C(=O)OC(C)(C)C (single isomer, unassigned) [MonoAlatBu(A)]

Hygroscopicity (Hygroscopicity): hygroscopic
Compound: CCOC(=O)C(C)NP(=O)(COCCn1cnc2c(NC3CC3)nc(N)nc21)NC(C)C(=O)OCC (stereo not drawn) [Compound 1]

PBMC to Plasma ratio [1]: 12
Compound: C[C@H](NP(=O)(COCCn1cnc2c(NC3CC3)nc(N)nc21)Oc1ccccc1)C(=O)OC(C)(C)C (stereo partly drawn) [MonoAlatBu]
